How the values were obtained:
Assay in all cases: relative viability (nuclei count vs DMSO), 5 days (fraction); higher = more cells survive
NCI-H2023 = tested on: NCI-H2023
Method in brief: (§1)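 Values are medians from duplicate plates. Each reflects relative viability, defined as the nuclei count of treated wells over that of vehicle wells. Lung cancer cell lines in 1536-well plates were pin-tool dosed one day after seeding with one drug alone or with a fixed anchor-drug dose plus five library-drug doses (not always all listed) in √10 steps, then fixed, stained and imaged at 4× after 5 days.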

NCI-H23 = tested on: NCI-H23
Method in brief: as §1

HOP-62 = tested on: HOP-62
Method in brief: as §1

NCI-H322M = tested on: NCI-H322M
Method in brief: as §1

NCI-H441 = tested on: NCI-H441
Method in brief: as §1

NCI-H650 = tested on: NCI-H650
Method in brief: as §1

NCI-H2009 = tested on: NCI-H2009
Method in brief: as §1

NCI-H1792 = tested on: NCI-H1792
Method in brief: as §1

NCI-H727 = tested on: NCI-H727
Method in brief: as §1

NCI-H2170 = tested on: NCI-H2170
Method in brief: as §1

NCI-H1437 = tested on: NCI-H1437
Method in brief: as §1

NCI-H1755 = tested on: NCI-H1755
Method in brief: as §1

UMC-11 = tested on: UMC-11
Method in brief: as §1

HCC-78 = tested on: HCC-78
Method in brief: as §1

LCLC-97TM1 = tested on: LCLC-97TM1
Method in brief: as §1

LOU-NH91 = tested on: LOU-NH91
Method in brief: as §1

NCI-H1355 = tested on: NCI-H1355
Method in brief: as §1

RERF-LC-KJ = tested on: RERF-LC-KJ
Method in brief: as §1

ChaGo-K-1 = tested on: ChaGo-K-1
Method in brief: as §1

SK-MES-1 = tested on: SK-MES-1
Method in brief: as §1

NCI-H2085 = tested on: NCI-H2085
Method in brief: as §1

NCI-H2405 = tested on: NCI-H2405
Method in brief: as §1

Cc1cnc(-c2cnc(NCCNc3ccc(C#N)cn3)nc2-c2ccc(Cl)cc2Cl)[nH]1 + CC(=O)Nc1cccc(-n2c(=O)n(C3CC3)c(=O)c3c(Nc4ccc(I)cc4F)n(C)c(=O)c(C)c32)c1 [Trametinib] (partner 0.02 µM)
relative viability (NCI-H2023; first compound 0.08 µM): 0.647 | relative viability (NCI-H2023; first compound 0.253 µM): 0.537 | relative viability (NCI-H2023; first compound 0.8 µM): 0.712 | relative viability (NCI-H2023; first compound 2.53 µM): 0.798 | relative viability (NCI-H23; first compound 0.08 µM): 0.412 | relative viability (NCI-H23; first compound 0.253 µM): 0.339 | relative viability (NCI-H23; first compound 0.8 µM): 0.451 | relative viability (NCI-H23; first compound 2.53 µM): 0.882 | relative viability (HOP-62; first compound 0.08 µM): 0.401 | relative viability (HOP-62; first compound 0.253 µM): 0.375 | relative viability (HOP-62; first compound 0.8 µM): 0.426 | relative viability (HOP-62; first compound 2.53 µM): 0.426 | relative viability (NCI-H322M; first compound 0.08 µM): 0.563 | relative viability (NCI-H322M; first compound 0.253 µM): 0.558 | relative viability (NCI-H322M; first compound 0.8 µM): 0.468 | relative viability (NCI-H322M; first compound 2.53 µM): 0.516 | relative viability (NCI-H441; first compound 0.08 µM): 0.561 | relative viability (NCI-H441; first compound 0.8 µM): 0.443 | relative viability (NCI-H441; first compound 2.53 µM): 0.372 | relative viability (NCI-H650; first compound 0.08 µM): 1.17 | relative viability (NCI-H650; first compound 0.253 µM): 0.989 | relative viability (NCI-H650; first compound 0.8 µM): 1.29 | relative viability (NCI-H650; first compound 2.53 µM): 0.988 | relative viability (NCI-H2009; first compound 0.08 µM): 0.372 | relative viability (NCI-H2009; first compound 0.253 µM): 0.273 | relative viability (NCI-H2009; first compound 0.8 µM): 0.293 | relative viability (NCI-H2009; first compound 2.53 µM): 0.384 | relative viability (NCI-H1792; first compound 0.08 µM): 0.525 | relative viability (NCI-H1792; first compound 0.253 µM): 0.437 | relative viability (NCI-H1792; first compound 0.8 µM): 0.472 | relative viability (NCI-H1792; first compound 2.53 µM): 0.349 | relative viability (NCI-H727; first compound 0.08 µM): 0.384 | relative viability (NCI-H727; first compound 0.253 µM): 0.375 | relative viability (NCI-H727; first compound 0.8 µM): 0.404 | relative viability (NCI-H727; first compound 2.53 µM): 0.393 | relative viability (NCI-H2170; first compound 0.08 µM): 1.02 | relative viability (NCI-H2170; first compound 0.8 µM): 0.929 | relative viability (NCI-H2170; first compound 2.53 µM): 0.788 | relative viability (NCI-H1437; first compound 0.08 µM): 0.677 | relative viability (NCI-H1437; first compound 0.253 µM): 0.492 | relative viability (NCI-H1437; first compound 0.8 µM): 0.489 | relative viability (NCI-H1437; first compound 2.53 µM): 0.381 | relative viability (NCI-H1755; first compound 0.08 µM): 0.865 | relative viability (NCI-H1755; first compound 0.253 µM): 0.755 | relative viability (NCI-H1755; first compound 0.8 µM): 0.771 | relative viability (NCI-H1755; first compound 2.53 µM): 0.771 | relative viability (UMC-11; first compound 0.08 µM): 0.891 | relative viability (UMC-11; first compound 0.253 µM): 0.525 | relative viability (UMC-11; first compound 0.8 µM): 0.377 | relative viability (UMC-11; first compound 2.53 µM): 0.82 | relative viability (HCC-78; first compound 0.08 µM): 0.876 | relative viability (HCC-78; first compound 0.253 µM): 0.669 | relative viability (HCC-78; first compound 0.8 µM): 0.621 | relative viability (HCC-78; first compound 2.53 µM): 0.828 | relative viability (LCLC-97TM1; first compound 0.08 µM): 0.201 | relative viability (LCLC-97TM1; first compound 0.253 µM): 0.193 | relative viability (LCLC-97TM1; first compound 0.8 µM): 0.18 | relative viability (LCLC-97TM1; first compound 2.53 µM): 0.214 | relative viability (LOU-NH91; first compound 0.08 µM): 0.799 | relative viability (LOU-NH91; first compound 0.253 µM): 0.84 | relative viability (LOU-NH91; first compound 0.8 µM): 0.843 | relative viability (LOU-NH91; first compound 2.53 µM): 0.856 | relative viability (NCI-H1355; first compound 0.08 µM): 0.396 | relative viability (NCI-H1355; first compound 0.253 µM): 0.384 | relative viability (NCI-H1355; first compound 0.8 µM): 0.41 | relative viability (NCI-H1355; first compound 2.53 µM): 0.409 | relative viability (RERF-LC-KJ; first compound 0.08 µM): 0.951 | relative viability (RERF-LC-KJ; first compound 0.253 µM): 0.847 | relative viability (RERF-LC-KJ; first compound 0.8 µM): 0.832 | relative viability (RERF-LC-KJ; first compound 2.53 µM): 0.771 | relative viability (ChaGo-K-1; first compound 0.08 µM): 0.891 | relative viability (ChaGo-K-1; first compound 0.253 µM): 0.761 | relative viability (ChaGo-K-1; first compound 0.8 µM): 0.844 | relative viability (ChaGo-K-1; first compound 2.53 µM): 0.824 | relative viability (SK-MES-1; first compound 0.08 µM): 0.548 | relative viability (SK-MES-1; first compound 0.253 µM): 0.54 | relative viability (SK-MES-1; first compound 0.8 µM): 0.676 | relative viability (SK-MES-1; first compound 2.53 µM): 0.619 | relative viability (NCI-H2085; first compound 0.08 µM): 0.596 | relative viability (NCI-H2085; first compound 0.253 µM): 0.524 | relative viability (NCI-H2085; first compound 0.8 µM): 0.52 | relative viability (NCI-H2085; first compound 2.53 µM): 0.604 | relative viability (NCI-H2405; first compound 0.08 µM): 0.755 | relative viability (NCI-H2405; first compound 0.253 µM): 0.634 | relative viability (NCI-H2405; first compound 0.8 µM): 0.611 | relative viability (NCI-H2405; first compound 2.53 µM): 0.439
